Data from US9572785B2, “DP2 antagonist and uses thereof” (Brickell Biotech, Inc., priority 2009, dated 2017).
pIC50: −log10 of the molar value. Values after ≈ are worked out from the molar mass of the structure shown. Like-named read-outs stand apart in the source and are kept apart here.

Tests used:
[1] = target: T1, DP2 receptor (Homo sapiens, UniProt Q9Y5Y4); test: In vitro scintillation proximity assay (SPA) off-rate; type: binding; conditions: compared with PGD2
T1 sequence (Q9Y5Y4 1-395): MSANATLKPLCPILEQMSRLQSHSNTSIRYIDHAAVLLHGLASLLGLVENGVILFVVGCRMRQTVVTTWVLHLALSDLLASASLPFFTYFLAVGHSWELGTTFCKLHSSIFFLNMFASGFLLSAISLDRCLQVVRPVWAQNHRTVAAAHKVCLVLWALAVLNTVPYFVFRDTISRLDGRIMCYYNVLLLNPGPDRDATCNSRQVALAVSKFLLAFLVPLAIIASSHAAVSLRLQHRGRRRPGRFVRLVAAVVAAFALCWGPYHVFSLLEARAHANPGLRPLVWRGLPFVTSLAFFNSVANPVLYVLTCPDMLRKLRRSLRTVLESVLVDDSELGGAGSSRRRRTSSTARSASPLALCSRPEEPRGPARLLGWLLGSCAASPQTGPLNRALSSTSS

[2] = clinical; conditions: human
[3] = Properties of the amorphous phase; type: physicochemical
[4] = in vivo; conditions: Hartley, guinea pig, in vivo
[5] = target: T1, DP2 receptor; test: Whole blood eosinophil shape change (ESC) assay, human; type: cell-based; parameters: endogenous in cells; host or cells: eosinophils in human whole blood
[6] = target: T2, DP2 receptor (Cavia porcellus, UniProt H0W1T0); test: Whole blood eosinophil shape change (ESC) assay, guinea pig; type: cell-based; conditions: read-out: IC50, PGD2-induced eosinophil shape change
T2 sequence (H0W1T0 1-391): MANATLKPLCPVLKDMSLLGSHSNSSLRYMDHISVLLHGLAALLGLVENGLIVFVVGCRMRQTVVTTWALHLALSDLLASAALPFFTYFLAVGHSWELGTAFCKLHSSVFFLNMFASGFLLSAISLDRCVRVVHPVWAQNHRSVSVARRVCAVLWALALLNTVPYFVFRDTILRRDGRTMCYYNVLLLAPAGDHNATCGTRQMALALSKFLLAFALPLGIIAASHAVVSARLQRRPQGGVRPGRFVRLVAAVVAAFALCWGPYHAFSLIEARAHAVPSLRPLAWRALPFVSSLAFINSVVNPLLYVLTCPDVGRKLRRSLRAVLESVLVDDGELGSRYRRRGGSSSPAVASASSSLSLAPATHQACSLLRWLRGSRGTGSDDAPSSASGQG

[7] = target: T1, DP2 receptor; test: In vitro DP2/CRTH2 radioligand binding assay ([3H]PGD2), human; parameters: expressed in transfected cells
Description: (§1) HEK293 cells stably expressing recombinant human DP2 are resuspended in 10 mM Hepes, 7.4 containing 1 mM DTT, lysed and centrifuged at 75,000×g to pellet the membranes. The membranes are resuspended in 10 mM Hepes, 7.4 containing 1 mM DTT and 10% glycerol to approximately 5 mg protein/ml. […] The reactions are terminated by rapid filtration through Whatman GF/C glass fibre filter plates. […] After harvesting, the filter plates are washed 3 times with 1 ml cold Wash Buffer then dried. Scintillant is then added to the plates and the radioactivity retained on the filters is determined on a Packard TopCount (Perkin Elmer). Specific binding is determined as total radioactive binding minus non-specific binding in the presence of 10 μM PGD2. IC50s were determined using GraphPad prism analysis of drug titration curves. Mouse, rat and guinea pig DP2 receptors were also investigated.

[8] = target: T3, mouse DP2 receptor (Mus musculus, UniProt Q9Z2J6); test: DP2 radioligand membrane binding assay, mouse
T3 construct: expressed in transfected cells
T3 sequence (Q9Z2J6 1-382): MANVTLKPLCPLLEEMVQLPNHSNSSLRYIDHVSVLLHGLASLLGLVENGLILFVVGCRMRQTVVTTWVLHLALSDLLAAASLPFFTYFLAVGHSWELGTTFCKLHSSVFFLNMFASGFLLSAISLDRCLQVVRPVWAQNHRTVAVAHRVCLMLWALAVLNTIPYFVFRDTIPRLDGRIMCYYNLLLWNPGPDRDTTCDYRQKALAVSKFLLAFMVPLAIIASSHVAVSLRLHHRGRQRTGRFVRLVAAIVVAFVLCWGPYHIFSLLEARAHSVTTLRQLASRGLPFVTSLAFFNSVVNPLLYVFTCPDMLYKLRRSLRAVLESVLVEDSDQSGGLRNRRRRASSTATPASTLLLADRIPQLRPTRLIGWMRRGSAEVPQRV
Description: as §1

[9] = in vivo; conditions: mouse, plasma, po, 10 mg/kg
[10] = physchem; conditions: water, 25 °C, pH 6.1, water, thermodynamic from solid
[11] = target: T4, recombinant human CRTH2 receptor (Homo sapiens, UniProt Q9Y5Y4); test: In vitro GTPγS binding assay; type: biochemical; conditions: CHO membranes, 80 nM PGD2, 0.2% human serum albumin
T4 construct: expressed in transfected cells
T4 sequence (Q9Y5Y4 1-395): T1 sequence (Q9Y5Y4 1-395)

[12] = target: T5, guinea pig DP2 receptor (Cavia porcellus, UniProt H0W1T0); test: DP2 radioligand membrane binding assay, guinea pig
T5 sequence (H0W1T0 1-391): T2 sequence (H0W1T0 1-391)
Description: as §1

[13] = test system: CYP2C9

Question: Which “off-rate from the DP2 receptor” value [1] does the source give for CCN(Cc1cc(C(F)(F)F)ccc1-c1cc(CC(=O)O)ccc1OC)C(=O)NCc1ccccc1 [Compound 1, [2′-(3-benzyl-1-ethyl-ureidomethyl)-6-methoxy-4′-trifluoromethyl-biphenyl-3-yl]-acetic acid] here?
Answer: longer off-rate than PGD2

Question: What about the half-life ([2]; in vivo) of the same compound?
Answer: 6.6 to 11 h

Question: What about the AUC(0-t) ([2]; plasma, oral, 30 mg) of the same compound?
Answer: 32.3 ng·h/mL

Question: What about the Cmax ([2]; plasma, oral, 30 mg) of the same compound?
Answer: 16 ng/mL

Question: What about the AUC(0-t) ([2]; plasma, po, 30 mg) of the same compound?
Answer: 24.1 ng·h/mL

Question: What about the Cmax ([2]; plasma, po, 30 mg) of the same compound?
Answer: 11.2 ng/mL

Question: What about the half-life ([2]; plasma, po, 30 mg) of the same compound?
Answer: 6.6 h

Question: And the AUC(0-t) ([2]; plasma, po, 100 mg)?
Answer: 118 ng·h/mL

Question: And the Cmax ([2]; plasma, po, 100 mg)?
Answer: 81 ng/mL

Question: And the half-life ([2]; plasma, po, 100 mg)?
Answer: 8.1 h

Question: And the AUC(0-t) ([2]; plasma, po, 300 mg)?
Answer: 1420 ng·h/mL

Question: What about the Cmax ([2]; plasma, po, 300 mg) of the same compound?
Answer: 1400 ng/mL

Question: And the half-life ([2]; plasma, po, 300 mg)?
Answer: 7 h

Question: What about the “solubility in water” value [3] of the same compound?
Answer: sparingly soluble in water

Question: What about the “hygroscopicity, weight change” value ([3]; from 0% to 90% relative humidity) of the same compound?
Answer: 1.7%

Question: And the concentration at 18.5 h [4]?
Answer: < 40 nM

Question: What about the IC90 [5] of the same compound?
Answer: 7.5 nM

Question: What about the pIC50 ([5]; read-out: IC50, PGD2-induced eosinophil shape change) of the same compound?
Answer: 8.57

Question: What about the pIC50 [6] of the same compound?
Answer: 7.67

Question: What about the AUC0-24 (human, in vivo) of the same compound?
Answer: 44.5 ng·h/mL

Question: And the Cmax (human, in vivo)?
Answer: 15.8 ng/mL

Question: What about the t1/2 (multiple dose administration 30 mg, cohort 2, Day 7) of the same compound?
Answer: 11.0 h

Question: What about the pIC50 ([7]; human DP2, membrane binding, read-out: average IC50, inhibition of radiolabeled PGD2 binding) of the same compound?
Answer: 8.31

Question: And the pIC50 ([7]; with human serum albumin, read-out: IC50, DP2 receptor binding)?
Answer: 7.91

Question: What about the pIC50 ([8]; mouse DP2, membrane binding, read-out: average IC50, inhibition of radiolabeled PGD2 binding) of the same compound?
Answer: 8.11

Question: What about the pIC50 ([8]; mouse DP2 receptor, in the presence of 0.2% mouse serum albumin, read-out: IC50, radioligand membrane binding) of the same compound?
Answer: 7.70

Question: What about the concentration at 1 h [9] of the same compound?
Answer: 280 nM

Question: What about the concentration at 2 h [9] of the same compound?
Answer: 150 nM

Question: What about the concentration at 4 h [9] of the same compound?
Answer: 70 nM

Question: And the concentration at 8 h [9]?
Answer: 30 nM

Question: And the concentration at 24 h [9]?
Answer: < 8 nM

Question: And the solubility at 24 h [10]?
Answer: 210 µg/mL (≈ 420 µM)

Question: What about the pIC50 [11] of the same compound?
Answer: > 7.70

Question: What about the pIC50 ([12]; average IC50, inhibition of radiolabeled PGD2 binding, guinea pig DP2, membrane binding) of the same compound?
Answer: 8.31

Question: What about the pIC50 ([12]; guinea pig DP2 receptor, in the presence of 0.2% guinea pig serum albumin, read-out: IC50, radioligand membrane binding) of the same compound?
Answer: 7.64

Question: And the “increase in 4-hydroxydiclofenac (CYP2C9) production compared to native cells” value [13]?
Answer: 1.1 fold
